In patent publication US20210401867A1, “PHOTOSENSITIZERS AND METHOD OF TREATING CANCER USING THE SAME” (Cheng-Wen Wu, priority 2018, published 2021):

Assays:
CASPASE-3 = assay: immunohistochemical (IHC) examination of subcutaneous FaDu tumor cells; format: in vivo, mouse; details: 1 day after treatment
Description: One day after the tumorigenic mouse are treated with IdU, or the combination of IdU and 4.5 Gy of NR/RS2000, the subcutaneous FaDu tumor cells are subjected to immunohistochemical (IHC) examination. […] The control group in FIGS. 15A-15F or FIGS. 16A-16B is the subcutaneous FaDu tumor cells without any treatment. […] CASPASE-3 is directly involved in apoptosis, therefore the combination of IdU and NR is proven to induce tumor growth inhibition.

FaDu-RFP+ cells = assay: in vivo IdU incorporation rate in FaDu-RFP+ solid tumors (flow cytometry); set-up: species or system mouse
Text: An injection concentration of IdU is selected based on a flow cytometry analysis on the incorporation rate of IdU in tumor cells. Referring to FIG. 13A, a schematic diagram of an in vivo animal experiment for determining an injection concentration of IdU is provided in accordance with an exemplary embodiment of the present disclosure. FaDu cells are marked with RFP (red fluorescent protein) and […]. The malignant solid tumors formed by FaDu-RFP+ cells on the tumorigenic mouse are injected with different concentrations of IdU: 100 μg, 50 μg, 20 μg, 10 μg, 5 μg, or 2 μg per 100 μl PBS. 4 hours later, the tumorigenic mouse are sacrificed and the solid tumors are isolated to single cells. The single cells from the solid tumors are then subjected to antibody staining and flow cytometry analyses. Referring to FIG. 13B, a flow cytometry result of the experiments described by FIG. 13A, is provided in accordance with an exemplary embodiment of the present disclosure. The horizontal axis represents the RFP signals, and the vertical axis represents the GFP signals. […] Only 6.232% of FaDu cells are detected with GFP in the left panel of FIG. 13B. The right panel of FIG. 13B are FaDu cells treated with 50 μg of IdU, an area 132 is FaDu cells detected with GFP signals. 19.088% of FaDu cells are detected with GFP signals in the right panel of FIG. 13B. […]

γH2AX = assay: p-γH2AX immunofluorescent staining of FaDu cells; format: cell-based, human; details: 1 μM BrdU with 1 Gy of 14 keV NR
Description: Referring to FIGS. 23A and 23B, p-γH2AX immunofluorescent staining for evaluating DNA damages induced by BrdU, RS2000, BrdU with RS2000, NR, and NR with BrdU, are provided in accordance with exemplary embodiments of the present disclosure. γH2AX is the histone H2AX protein with phosphorylated amino acid on serine 139. γH2AX is a specific marker for DNA DSBs. FaDu cells are seeded on a chamber slides, and are fixed with −20° C., 100% ethanol under room temperature for 15 minutes. The fixed chamber slides are washed with PBS, and permeablized with 0.1% Triton X-100 for 10 minutes. Then, the chamber slides are blocked with 5% milk in PBS for 30 minutes at room temperature, and incubated with primary antibody (anti-γH2AX) overnight at 4° C. FaDu cells in the chamber slides are then washed with PBS, and incubated with secondary antibody which is conjugated by a fluorescent dye for 1 hour at room temperature. The nuclei were countestained with 5 μg/ml of DAPI (4′,6-diamidino-2-phenylindole). The stained FaDu cells are then being mounted and subjected to microscopic examination with a confocal laser scanning microscope (ZEISS LSM780). The number of p-γH2AX are quantified using Metamorph software. […] FIG. 23B is a quantitative result of FIG. 23A. […]

SMILES | apoptotic cells (IHC, qualitative) (CASPASE-3; IdU and 4.5 Gy of NR, versus other groups) | CASPASE-3 expression in the tumor cells (IHC, quantitative) (CASPASE-3; IdU and NR, versus other treatments) | IdU incorporation rate among injected concentrations (FaDu-RFP+ cells; 50 μg IdU/100 μl PBS versus 100, 20, 10, 5, 2 μg) | FaDu cells detected with GFP signals (IdU incorporation) (FaDu-RFP+ cells; 50 μg of IdU injected into tumor, 4 hours) | γH2AX expression (immunofluorescent staining) (γH2AX)
O=c1[nH]c(=O)n([C@H]2C[C@H](O)[C@@H](CO)O2)cc1I [IdU, iododeoxyuridine] | more apoptotic cells | more pronounced CASPASE-3 expression | best IdU incorporation rate | 19.088% | 
O=c1[nH]c(=O)n([C@H]2C[C@H](O)[C@@H](CO)O2)cc1Br [BrdU, bromodeoxyuridine] |  |  |  |  | significant amount of γH2AX expression
